Data published in publication PMC9500300, “Development of a novel Bruton’s tyrosine kinase inhibitor that exerts anti-cancer activities potentiates response of chemotherapeutic agents in multiple myeloma stem cell-like cells” (Frontiers in Pharmacology, 2022).
Structures can show the parent of a compound that is named as a salt.

Molecular target: Bruton's tyrosine kinase (BTK) (Homo sapiens, UniProt Q06187)
Test: ADP-Glo in vitro kinase assay with BTK enzyme (Promega)
Assay type: biochemical

Chain of Bruton's tyrosine kinase (BTK) (Q06187 2-659): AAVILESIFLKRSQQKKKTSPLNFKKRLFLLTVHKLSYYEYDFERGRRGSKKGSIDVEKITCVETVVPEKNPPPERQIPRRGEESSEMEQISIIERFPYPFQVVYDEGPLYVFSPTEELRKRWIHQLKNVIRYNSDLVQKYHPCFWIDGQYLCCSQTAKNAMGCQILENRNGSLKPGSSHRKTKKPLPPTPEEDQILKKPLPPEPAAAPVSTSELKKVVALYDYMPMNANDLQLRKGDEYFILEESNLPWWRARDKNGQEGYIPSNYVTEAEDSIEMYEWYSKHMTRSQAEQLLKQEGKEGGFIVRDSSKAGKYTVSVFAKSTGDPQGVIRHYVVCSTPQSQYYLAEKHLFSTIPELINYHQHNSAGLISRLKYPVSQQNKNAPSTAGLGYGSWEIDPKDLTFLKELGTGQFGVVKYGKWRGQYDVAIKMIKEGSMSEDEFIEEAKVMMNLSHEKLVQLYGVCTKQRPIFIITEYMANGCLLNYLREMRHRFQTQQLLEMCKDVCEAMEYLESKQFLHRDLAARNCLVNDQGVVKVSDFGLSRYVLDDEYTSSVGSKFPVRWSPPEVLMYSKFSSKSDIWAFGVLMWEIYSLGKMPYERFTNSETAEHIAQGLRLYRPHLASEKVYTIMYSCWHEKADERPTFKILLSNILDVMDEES

N=C(N)SCc1ccc(CN2C(=O)C(=Cc3ccc(Oc4cccc(Cl)c4Cl)cc3)c3cc([N+](=O)[O-])ccc32)cc1 [compound 6, 4-((3-(4-(2,3-dichlorophenoxy)benzylidene)-5-nitro-2-oxoindolin-1-yl)methyl) benzyl carbamimidothioate hydrobromide]
inhibition at 1 µM: 49.8%
